Laboratory results from patent US20240271213A1, “METHODS AND COMPOSITIONS COMPRISING FUNCTIONAL GENOMICS OF HIBERNATING MAMMALS” (Fauna Bio Incorporated, priority 2021, published 2024).

Legend:
SH-SY5Y cells = test: Aβ1-42 induced toxicity in SH-SY5Y cells, viability by MTT; format: cell-based, human; settings: Aβ1-42 peptide added, vs vehicle control
Text: Alzheimer's disease progression features the accumulation of two protein aggregates: β-amyloid (Aβ) and tau; these play crucial roles in neuronal loss or dysfunction in Alzheimer's disease. To mimic pathogenesis of Alzheimer's disease, we used in vitro cell models that focus on Aβ-induced toxicity and tau hyperphosphorylation. SH-SY5Y human neuroblastoma cells (American Type Culture Collection; ATCC) were purchased and grown in appropriate culture medium. First, OE/KD and WT SH-SY5Y cells were equally seeded in wells of 96-well plates. Human SH-SY5Y neuroblastoma cells were successfully differentiated into mature neurons by incubating cells in retinoic acid and N2 supplement for 9 days (FIG. 16). These can be distinguished from the original SH-SY5Y cells, which are prone to grow in clusters and extend short neurites at edges of the clusters. […] Aβ-induced toxicity was examined by adding Aβ1-42 peptide to both WT and OE/KD cells. Aβ1-42 induced cell death in WT cells. […] To validate potential neuroprotective compounds identified by the integrated gene networks described above, in vitro assays were conducted with SH-SY5Y cells. Aβ-induced toxicity was examined by adding Aβ1-42 peptide to cells treated with vehicle control or test compounds (FIG. 19). […] Tau hyperphosphorylation was also examined, by exposing the SH-SY5Y cells to hypothermic conditions (30° C.).

AC16 cells [1] = test: Ischemia-reperfusion assay in AC16 cells, cell viability; format: cell-based, human; settings: 16 hours ischemia, 4 hours reperfusion, compound added prior to ischemia
Experimental: FIG. 18A is a graph showing in vitro cell viability of AC16 cells following 16 hrs ischemia and 4 hrs reperfusion and incubated with different concentrations of a compound identified for neuroprotection, Triptolide.
(§1) For ischemia-reperfusion assays, de-oxygenated serum free medium was prepared by adding 1% penicillin-streptomycin into glucose-free DMEM; the medium was contacted for 5 mins with 5% CO2 and 95% N2; and the medium was then warmed in a 37° C. bath. Cells were then washed with warm PBS to completely remove normal culture medium. PBS was aspirated and deoxygenated serum free medium was added into plates (100 μl was added for each well of 96-well plate). To mimic myocardial ischemia, cells in the experiment plate were subjected to ischemia by culturing them in glucose and serum free-medium and hypoxic conditions (5% CO2 and 95% N2). Plates were placed in a hypoxia chamber and air-tight lock; the chamber was filled with 5% CO2 and 95% N2 until oxygen level is 0%, and then the chamber was placed in the incubator for a duration of ischemia time. […] Cell viability was determined by MTT assay The control cells were considered to be 100% viable; changes in viability in the experiment plates were measured relative to the control. […]

AC16 cells [2] = test: Ischemia-reperfusion assay in AC16 cells, cell damage (LDH activity); format: cell-based, human; settings: 16 hours ischemia, 4 hours reperfusion, compound added prior to ischemia
Experimental: FIG. 18B is a graph showing a decrease in cell damage response (LDH activity) of AC16 cells following 16 hrs ischemia and 4 hrs reperfusion and incubated with different concentrations of Triptolide.
as §1, with “time. The duration of ischemia was 21 hours for H9C2 cells; 29 hours for differentiated SH-SY5Y cells; 16 hours for AC16 cells; and 16 hours for native SH-SY5Y cells.” for “time.”

AC16 cells [3] = test: Reactive oxygen species (ROS) production in AC16 cells; format: cell-based, human; settings: AC16 cells following incubation with compound
H9C2 cells = test: Ischemia-reperfusion assay in H9C2 cells, viability by MTT; format: cell-based, rat; settings: melatonin added at start of ischemia, control wells ~75% viable, normoxic control = 100%
Experimental: FIG. 17 is a graph illustrating results of an in vitro validation assay for ischemia-reperfusion injury in H9C2 cells. H9C2 cells were exposed to ischemia for […] and reperfusion for 4 hrs were contacted with differing concentrations of melatonin at the start of ischemia. Viability was measured using the MTT assay. Data are expressed as the mean +/− standard deviation in experiments performed in triplicate. * p<0.05 and ** […] compared to vehicle control.
as §1, with “N2).” for “N2). Plates were placed in a hypoxia chamber and air-tight lock; the chamber was filled with 5% CO2 and 95% N2 until oxygen level is 0%, and then the chamber was placed in the incubator for a duration of ischemia time.”

SMILES: CC12CC3CC(C)(C1)CC(N)(C3)C2 [Memantine]
- cell viability under Aβ1-42 toxicity (MTT) (SH-SY5Y cells): increase in cell viability

SMILES: CC(C)[C@]12O[C@H]1[C@@H]1O[C@]13[C@]1(O[C@H]1C[C@H]1C4=C(CC[C@@]13C)C(=O)OC4)[C@@H]2O [Triptolide]
- cell viability after ischemia-reperfusion (AC16 cells [1]): increased cell viability
- cell damage (LDH activity) after ischemia-reperfusion (AC16 cells [2]): reduced cell damage
- production of reactive oxygen species (ROS) (AC16 cells [3]): decrease production of reactive oxygen species (ROS)

SMILES: COc1ccc2[nH]cc(CCNC(C)=O)c2c1 [melatonin]
- viable cells after ischemia-reperfusion (MTT) (H9C2 cells): ~90%
